Experimental findings from patent publication US20210300943A1, “OGA INHIBITOR COMPOUNDS” (Janssen Pharmaceutica NV, priority 2018, published 2021) are described below.

The target in assay [1] is T1, recombinant human Meningioma Expressed Antigen 5 (MGEA5), also referred to as O-GlcNAcase (OGA) (Homo sapiens, UniProt O60502).
T1 construct: Full length OGA enzyme was purchased at OnGene (cat #TP322411); purchased OnGene (so in the source)
T1 sequence (O60502 1-916): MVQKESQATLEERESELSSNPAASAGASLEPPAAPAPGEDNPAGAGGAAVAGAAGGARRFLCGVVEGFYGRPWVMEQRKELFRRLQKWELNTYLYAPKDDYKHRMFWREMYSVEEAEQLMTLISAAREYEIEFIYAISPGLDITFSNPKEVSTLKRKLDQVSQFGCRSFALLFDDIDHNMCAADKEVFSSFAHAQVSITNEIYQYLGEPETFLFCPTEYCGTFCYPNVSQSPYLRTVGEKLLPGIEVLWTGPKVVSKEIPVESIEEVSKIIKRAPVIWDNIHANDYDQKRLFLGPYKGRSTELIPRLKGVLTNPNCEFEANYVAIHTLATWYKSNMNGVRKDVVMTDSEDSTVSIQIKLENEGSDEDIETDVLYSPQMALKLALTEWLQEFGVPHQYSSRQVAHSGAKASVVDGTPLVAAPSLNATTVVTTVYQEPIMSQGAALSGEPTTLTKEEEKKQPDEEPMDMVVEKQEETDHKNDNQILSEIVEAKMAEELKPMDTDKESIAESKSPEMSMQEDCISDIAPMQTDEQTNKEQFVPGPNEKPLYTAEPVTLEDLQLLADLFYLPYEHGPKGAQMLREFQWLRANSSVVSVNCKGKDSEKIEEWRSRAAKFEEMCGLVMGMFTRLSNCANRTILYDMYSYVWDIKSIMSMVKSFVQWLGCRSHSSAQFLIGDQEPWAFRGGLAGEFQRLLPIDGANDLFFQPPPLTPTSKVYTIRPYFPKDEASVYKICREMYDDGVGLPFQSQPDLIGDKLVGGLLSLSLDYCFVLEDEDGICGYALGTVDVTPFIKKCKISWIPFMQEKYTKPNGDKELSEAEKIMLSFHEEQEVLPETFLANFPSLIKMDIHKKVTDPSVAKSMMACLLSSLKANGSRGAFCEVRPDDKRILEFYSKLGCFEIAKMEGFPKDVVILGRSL
As to the kind of experiment: OGA biochemical assay (inhibition of FM-GlcNAc hydrolysis, fluorescence). The note with it: for Emax / Enzymatic Emax (%): maximal effect; for Emax: read-out: Enzymatic Emax (%); for IC50: read-out: Enzymatic hOGA, pIC50 (converted). The text has this: The assay is based on the inhibition of the hydrolysis of fluorescein mono-β-D-N-Acetyl-Glucosamine (FM-GlcNAc) (Mariappa et al. 2015, Biochem J 470:255) by the recombinant human Meningioma Expressed Antigen 5 (MGEA5), also referred to as O-GlcNAcase (OGA). The hydrolysis FM-GlcNAc (Marker Gene technologies, cat #M1485) results in the formation of β-D-N-glucosamineacetate and fluorescein. The fluorescence of the latter can be measured at excitation wavelength 485 nm and emission wavelength 538 nm. An increase in enzyme activity results in an increase in fluorescence signal. Full length OGA enzyme was purchased at OnGene (cat #TP322411). The enzyme was stored in 25 mM Tris.HCl, pH 7.3, 100 mM glycine, 10% glycerol at −20° C. Thiamet G and GlcNAcStatin were tested as reference compounds (Yuzwa et al. 2008 Nature Chemical Biology 4:483; Yuzwa et al. 2012 Nature Chemical Biology 8:393). The assay was performed in 200 mM Citrate/phosphate buffer supplemented with 0.005% Tween-20. 35.6 g Na2HPO42H2O (Sigma, #C0759) were dissolved in 1 L water to obtain a 200 mM solution. 19.2 g citric acid (Merck, #1.06580) was dissolved in 1 L water to obtain a 100 mM solution. pH of the sodiumphosphate solution was adjusted with the citric acid solution to 7.2. The buffer to stop the reaction consists of a 500 mM Carbonate buffer, pH 11.0. 734 mg FM-GlcNAc were dissolved in 5.48 mL DMSO to obtain a 250 mM solution and was stored at −20° C. OGA was used at a 2 nM concentration and FM-GlcNAc at a 100 uM final concentration. Dilutions were prepared in assay buffer.
50 nl of a compound dissolved in DMSO was dispensed on Black Proxiplate TM 384 Plus Assay plates (Perkin Elmer, #6008269) and 3 μl fl-OGA enzyme mix added subsequently. Plates were pre-incubated for 60 min at room temperature and then 2 μl FM-GlcNAc substrate mix added. […] Plates were briefly centrifuged for 1 min at 1000 rpm and incubate at room temperature for 6 h. To stop the reaction 5 μl STOP buffer were added and plates centrifuge again 1 min at 1000 rpm. Fluorescence was quantified in the Thermo Scientific Fluoroskan Ascent or the PerkinElmer EnVision with excitation wavelength 485 nm and emission wavelength 538 nm.
For analysis a best-fit curve is fitted by a minimum sum of squares method. From this an IC50 value and Hill coefficient was obtained. High control (no inhibitor) and low control (saturating concentrations of standard inhibitor) were used to define the minimum and maximum values.

The next assay has as its target T2, OGA (Homo sapiens, UniProt O60502).
T2 construct: endogenous in cells; host or cells: HEK293 cells inducible for P301L mutant human Tau (2N4R)
T2 sequence (O60502 1-916): T1 sequence (O60502 1-916)
In words: OGA cellular assay (ICC detection of O-GlcNAcylated proteins in HEK293 cells inducible for P301L mutant human Tau). The following applies: for Emax: HEK293, HEK293 cells inducible for P301L mutant human Tau; for Emax / Cellular Emax (%): maximal effect, Thiamet G 200 uM as maximum; for EC50 / Cellular Emax (%): HEK293 cells inducible for P301L mutant human Tau; for EC50: 6 hours incubation, read-out: Cellular hOGA, pEC50 (converted). Format: cell-based. The procedure:
HEK293 cells inducible for P301L mutant human Tau (isoform 2N4R) were established at Janssen. Thiamet-G was used for both plate validation (high control) and as reference compound (reference EC50 assay validation). OGA inhibition is evaluated through the immunocytochemical (ICC) detection of O-GlcNAcylated proteins by the use of a monoclonal antibody (CTD110.6; Cell Signaling, #9875) detecting 0-GlcNAcylated residues as previously described (Dorfmueller et al. 2010 Chemistry & biology, 17:1250). Inhibition of OGA will result in an increase of O-GlcNAcylated protein levels resulting in an increased signal in the experiment. Cell nuclei are stained with Hoechst to give a cell culture quality control and a rough estimate of immediate compounds toxicity, if any. ICC pictures are imaged with a Perkin Elmer Opera Phenix plate microscope and quantified with the provided software Perkin Elmer Harmony 4.1.
Cells were propagated in DMEM high Glucose (Sigma, #D5796) following standard procedures. 2 days before the cell assay cells are split, counted and seeded in Poly-D-Lysine (PDL) coated 96-wells (Greiner, #655946) plate at a cell density of 12,000 cells per cm^2 (4,000 cells per well) in 100 μl of Assay Medium (Low Glucose medium is used to reduce basal levels of GlcNAcylation) (Park et al. 2014 The Journal of biological chemistry 289:13519). At the day of compound test medium from assay plates was removed and replenished with 90 μl of fresh Assay Medium. 10 μl of compounds at a 10 fold final concentration were added to the wells. Plates were centrifuged shortly before incubation in the cell incubator for 6 hours. DMSO concentration was set to 0.2%. Medium is discarded by applying vacuum. For staining of cells medium was removed and cells washed once with 100 μl D-PBS (Sigma, #D8537). From next step onwards unless other stated assay volume was always 50 μl and incubation was performed without agitation and at room temperature. Cells were fixed in 50 μl of a 4% paraformaldehyde (PFA, Alpha aesar, #043368) PBS solution for 15 minutes at room temperature. […] Before analysis samples were washed 2 times manually for 5 minutes in ICC base buffer.
Imaging is performed using Perkin Elmer Phenix Opera using a water 20× objective and recording 9 fields per well. Intensity readout at 488 nm is used as a measure of O-GlcNAcylation level of total proteins in wells. To assess potential toxicity of compounds nuclei were counted using the Hoechst staining. IC50-values are calculated using parametric non-linear regression model fitting. As a maximum inhibition Thiamet G at a 200 uM concentration is present on each plate. In addition, a concentration response of Thiamet G is calculated on each plate.

A value given as a limit tells only on which side of the number the result lay.

`Cc1cc(C2CCCN([C@H](C)c3ccc4c(n3)OCCO4)C2)nc(C)n1` (mixture of isomers) [Product 113]: in assay [1], the Emax (in general, the maximal effect, on the per cent scale that the assay sets) is 100% and the IC50 was 100 nM. Further, at OGA, the Emax came to 55% and the EC50 is 794 nM.

Regarding `COc1cc(NC[C@H]2CCCN(C(C)c3ccc4c(n3)OCCO4)C2)cc(C)n1` (mixture of isomers) [Product 24], in assay [1], the Emax is 102% and the IC50 is 7.94 nM. Also, at OGA, the Emax was determined as 69% and the EC50 is 7.94 nM.

As for `Cc1cc(C2CCCN(C(C)c3cc4c(cc3F)NCCO4)C2)cc(C)n1` (stereo not shown) [Product 190], in assay [1], the Emax came to 101% and the IC50 was 10 nM. Besides, at OGA, the Emax was 82% and the EC50 is 50.1 nM.

As for `CC(c1ccc2c(n1)OCCO2)N1CCC[C@H](NCc2ccc(F)cc2)C1` (stereo partly shown) [Product 197], in assay [1], the Emax is 98% and the IC50 was 398 nM. Moreover, at OGA, the Emax stood at 66% and the EC50 is 631 nM.

`Cc1cc(CC2(F)CCCN([C@H](C)c3nc4c(cc3F)OCCO4)C2)cc(C)n1` (single isomer, unassigned) [Product 174]: in assay [1], the Emax was found to be 99% and the IC50 was 6.31 nM. Moreover, at OGA, the Emax came to 75% and the EC50 is 63.1 nM.

`Cc1cc(CC2(F)CCCN([C@@H](C)c3ccc4c(n3)OCCO4)C2)cc(C)n1` (single isomer, unassigned) [Product 177]: in assay [1], the Emax is 81% and the IC50 was 2510 nM. Moreover, on OGA, the Emax is -8% and the EC50 was more than 1000 nM.

With `Cc1cc(C[C@H]2CCCN(C(C)c3cc4c(cc3F)OCCO4)C2)cc(C)n1` (mixture of isomers) [Product 40], in assay [1], the Emax was 101% and the IC50 is 2 nM. In addition, at OGA, the Emax is 96% and the EC50 was 15.8 nM.

With `Cc1cc(NCC2CCCN(C(C)c3ccc4c(c3)OCC4)C2)cc(C(F)(F)F)n1` (stereo not shown) [Product 36], in assay [1], the Emax worked out at 101%. In addition, at OGA, the Emax was found to be 88% and the EC50 is 126 nM.

For the molecule `Cc1cc(C[C@H]2CCCN(C(C)c3cnc4c(c3)OCCN4)C2)cc(C)n1` (single isomer, unassigned) [Product 52], in assay [1], the “Enzymatic Emax (%)” value worked out at 104% and the IC50 was 1.26 nM. In addition, at OGA, the Emax turned out to be 92% and the EC50 was 6.31 nM.

As to `Cc1cc(OC[C@H]2CCCN(C(C)c3ccc4c(n3)OCCO4)C2)nc(C)n1` (single isomer, unassigned) [Product 163], in assay [1], the “Enzymatic Emax (%)” value came to 100% and the IC50 was 7.94 nM. Moreover, at OGA, the EC50 is 45.7 nM and the “Cellular Emax (%)” value is given as 82%.

Consider `COc1cc(C2CCCN(C(C)c3ccc4c(n3)OCCO4)C2)cc(C)n1` (stereo not shown) [Product 7], for which, in assay [1], the Emax is 103% and the IC50 is 12.6 nM. Further, at OGA, the Emax was 77% and the EC50 is 100 nM.

As to `Cc1cc(CO[C@H]2CCCN(C(C)c3ccc4c(n3)OCCO4)C2)cc(C)n1` (single isomer, unassigned) [Product 166], in assay [1], the Emax is 98% and the IC50 was 10 nM. At OGA, the EC50 was 100 nM and the “Cellular Emax (%)” value worked out at 67%.

For `Cc1cc(OC[C@H]2CCCN(C(C)c3ccc4c(n3)OCCO4)C2)nc(C)n1` (single isomer, unassigned) [Product 162], in assay [1], the Emax was 93% and the IC50 was 794 nM. In addition, at OGA, the EC50 is more than 1000 nM and the “Cellular Emax (%)” value came out at 3%.

Regarding `Cc1cc(CO[C@H]2CCCN(C(C)c3nc4c(cc3F)OCCO4)C2)cc(C)n1` (single isomer, unassigned) [Product 169], in assay [1], the Emax worked out at 85% and the IC50 was 2000 nM. Moreover, at OGA, the EC50 is more than 1000 nM and the “Cellular Emax (%)” value is recorded as −5%.

As for `Cc1cc(C2CCCN(C(C)c3ccc4c(n3)OCCO4)C2)c(F)c(C)n1` (stereo not shown) [Product 185], in assay [1], the Emax worked out at 100% and the IC50 was 15.8 nM. Also, at OGA, the Emax worked out at 65% and the EC50 is 50.1 nM.

For `Cc1cc([C@H]2CCCN([C@H](C)c3ccc4c(n3)OCCO4)C2)c(F)c(C)n1` (single isomer, unassigned) [Product 186], in assay [1], the Emax is 83% and the IC50 was 2000 nM. For the same molecule, at OGA, the Emax was -6% and the EC50 is more than 1000 nM.

Take `Cc1cc(OC[C@H]2CCCN(C(C)c3cc4c(cc3F)NCCO4)C2)cc(C)n1` (stereo partly shown) [Product 191]: in assay [1], the Emax was 95% and the IC50 is 5.01 nM. At OGA, the Emax was 81% and the EC50 was 15.8 nM.
